Measured values reported in ChEMBL document CHEMBL4507268 (2021).

Assays:
Conditions in all cases: Compound concentration 1000.0 nM
[1] = biological target: T1, Serine/threonine-protein kinase 17B (Homo sapiens) (UniProt O94768)
T1 sequence (whole entry): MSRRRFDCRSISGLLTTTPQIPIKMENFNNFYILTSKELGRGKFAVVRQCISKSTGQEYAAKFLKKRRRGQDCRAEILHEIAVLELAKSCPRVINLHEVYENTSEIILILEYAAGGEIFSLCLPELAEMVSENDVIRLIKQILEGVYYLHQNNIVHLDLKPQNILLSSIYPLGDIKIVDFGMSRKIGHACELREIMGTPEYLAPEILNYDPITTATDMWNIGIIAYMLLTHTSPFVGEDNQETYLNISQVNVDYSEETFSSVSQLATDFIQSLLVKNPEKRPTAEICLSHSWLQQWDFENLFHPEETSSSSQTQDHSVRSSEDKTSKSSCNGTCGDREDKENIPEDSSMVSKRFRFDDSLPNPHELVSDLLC

[2] = biological target: Mitogen-activated protein kinase 4 (Homo sapiens) (UniProt P31152)
[3] = biological target: Mitogen-activated protein kinase kinase kinase 15 (Homo sapiens) (UniProt Q6ZN16)
[4] = biological target: T2, Mitogen-activated protein kinase kinase kinase kinase 3 (Homo sapiens) (UniProt Q8IVH8)
T2 sequence (whole entry): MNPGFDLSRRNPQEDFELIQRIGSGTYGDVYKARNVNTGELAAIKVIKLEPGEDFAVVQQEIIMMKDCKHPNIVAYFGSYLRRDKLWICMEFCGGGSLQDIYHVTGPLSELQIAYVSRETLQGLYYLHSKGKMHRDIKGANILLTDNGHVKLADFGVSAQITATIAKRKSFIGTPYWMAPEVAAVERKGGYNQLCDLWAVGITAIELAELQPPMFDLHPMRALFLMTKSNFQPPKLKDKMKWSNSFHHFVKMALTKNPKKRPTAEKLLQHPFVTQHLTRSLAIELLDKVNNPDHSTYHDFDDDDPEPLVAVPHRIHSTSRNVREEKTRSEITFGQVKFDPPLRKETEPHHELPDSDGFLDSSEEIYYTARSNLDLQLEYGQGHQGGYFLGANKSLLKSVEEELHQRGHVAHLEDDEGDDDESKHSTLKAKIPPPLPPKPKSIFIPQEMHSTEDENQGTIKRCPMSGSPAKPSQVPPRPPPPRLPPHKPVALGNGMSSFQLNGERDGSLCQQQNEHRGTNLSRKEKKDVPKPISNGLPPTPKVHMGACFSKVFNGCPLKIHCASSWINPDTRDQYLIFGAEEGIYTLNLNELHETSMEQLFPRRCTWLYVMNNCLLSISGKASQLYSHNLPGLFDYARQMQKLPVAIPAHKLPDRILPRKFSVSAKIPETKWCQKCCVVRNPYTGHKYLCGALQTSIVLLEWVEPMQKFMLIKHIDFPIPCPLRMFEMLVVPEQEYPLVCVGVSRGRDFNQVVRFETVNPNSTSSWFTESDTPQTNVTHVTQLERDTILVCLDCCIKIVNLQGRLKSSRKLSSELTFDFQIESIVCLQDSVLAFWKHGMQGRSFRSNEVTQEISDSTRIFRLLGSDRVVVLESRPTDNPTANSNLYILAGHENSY

[5] = biological target: T3, Serine/threonine-protein kinase 4 (Homo sapiens) (UniProt Q13043)
T3 sequence (whole entry): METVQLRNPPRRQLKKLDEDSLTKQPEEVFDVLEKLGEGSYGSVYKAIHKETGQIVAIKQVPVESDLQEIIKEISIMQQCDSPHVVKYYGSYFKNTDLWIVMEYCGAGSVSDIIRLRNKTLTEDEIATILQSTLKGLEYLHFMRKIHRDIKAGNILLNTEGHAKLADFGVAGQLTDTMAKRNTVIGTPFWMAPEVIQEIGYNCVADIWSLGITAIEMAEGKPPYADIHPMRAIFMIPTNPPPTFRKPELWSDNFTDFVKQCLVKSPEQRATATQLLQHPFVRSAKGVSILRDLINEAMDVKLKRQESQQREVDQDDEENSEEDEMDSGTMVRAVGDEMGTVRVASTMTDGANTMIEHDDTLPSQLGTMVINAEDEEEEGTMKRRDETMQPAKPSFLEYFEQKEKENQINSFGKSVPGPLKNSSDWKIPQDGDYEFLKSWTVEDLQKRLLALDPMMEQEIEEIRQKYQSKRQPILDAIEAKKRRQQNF

[6] = biological target: T4, Serine/threonine-protein kinase 3 (Homo sapiens) (UniProt Q13188)
T4 sequence (whole entry): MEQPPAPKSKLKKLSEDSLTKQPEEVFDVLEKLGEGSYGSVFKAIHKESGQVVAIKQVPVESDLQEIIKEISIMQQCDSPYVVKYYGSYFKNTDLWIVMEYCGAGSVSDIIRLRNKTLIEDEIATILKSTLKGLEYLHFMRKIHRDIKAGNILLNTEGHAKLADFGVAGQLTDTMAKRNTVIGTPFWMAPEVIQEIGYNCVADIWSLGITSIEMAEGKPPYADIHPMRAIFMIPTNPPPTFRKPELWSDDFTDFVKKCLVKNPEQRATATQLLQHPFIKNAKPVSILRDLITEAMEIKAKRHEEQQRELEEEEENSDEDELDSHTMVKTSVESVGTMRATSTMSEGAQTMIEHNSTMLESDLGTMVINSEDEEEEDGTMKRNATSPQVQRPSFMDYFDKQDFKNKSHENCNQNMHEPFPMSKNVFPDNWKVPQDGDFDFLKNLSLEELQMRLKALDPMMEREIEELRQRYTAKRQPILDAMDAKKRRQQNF

[7] = test system: Phosphatidylinositol 4,5-bisphosphate 3-kinase catalytic subunit alpha isoform (Homo sapiens), P42336 [M1043I]
[8] = biological target: SRSF protein kinase 1 (Homo sapiens) (UniProt Q96SB4)
[9] = biological target: Mitogen-activated protein kinase kinase kinase 19 (Homo sapiens) (UniProt Q56UN5)

Measured: residual activity

Chain of Mitogen-activated protein kinase kinase kinase 19 (Homo sapiens) (Q56UN5 whole entry): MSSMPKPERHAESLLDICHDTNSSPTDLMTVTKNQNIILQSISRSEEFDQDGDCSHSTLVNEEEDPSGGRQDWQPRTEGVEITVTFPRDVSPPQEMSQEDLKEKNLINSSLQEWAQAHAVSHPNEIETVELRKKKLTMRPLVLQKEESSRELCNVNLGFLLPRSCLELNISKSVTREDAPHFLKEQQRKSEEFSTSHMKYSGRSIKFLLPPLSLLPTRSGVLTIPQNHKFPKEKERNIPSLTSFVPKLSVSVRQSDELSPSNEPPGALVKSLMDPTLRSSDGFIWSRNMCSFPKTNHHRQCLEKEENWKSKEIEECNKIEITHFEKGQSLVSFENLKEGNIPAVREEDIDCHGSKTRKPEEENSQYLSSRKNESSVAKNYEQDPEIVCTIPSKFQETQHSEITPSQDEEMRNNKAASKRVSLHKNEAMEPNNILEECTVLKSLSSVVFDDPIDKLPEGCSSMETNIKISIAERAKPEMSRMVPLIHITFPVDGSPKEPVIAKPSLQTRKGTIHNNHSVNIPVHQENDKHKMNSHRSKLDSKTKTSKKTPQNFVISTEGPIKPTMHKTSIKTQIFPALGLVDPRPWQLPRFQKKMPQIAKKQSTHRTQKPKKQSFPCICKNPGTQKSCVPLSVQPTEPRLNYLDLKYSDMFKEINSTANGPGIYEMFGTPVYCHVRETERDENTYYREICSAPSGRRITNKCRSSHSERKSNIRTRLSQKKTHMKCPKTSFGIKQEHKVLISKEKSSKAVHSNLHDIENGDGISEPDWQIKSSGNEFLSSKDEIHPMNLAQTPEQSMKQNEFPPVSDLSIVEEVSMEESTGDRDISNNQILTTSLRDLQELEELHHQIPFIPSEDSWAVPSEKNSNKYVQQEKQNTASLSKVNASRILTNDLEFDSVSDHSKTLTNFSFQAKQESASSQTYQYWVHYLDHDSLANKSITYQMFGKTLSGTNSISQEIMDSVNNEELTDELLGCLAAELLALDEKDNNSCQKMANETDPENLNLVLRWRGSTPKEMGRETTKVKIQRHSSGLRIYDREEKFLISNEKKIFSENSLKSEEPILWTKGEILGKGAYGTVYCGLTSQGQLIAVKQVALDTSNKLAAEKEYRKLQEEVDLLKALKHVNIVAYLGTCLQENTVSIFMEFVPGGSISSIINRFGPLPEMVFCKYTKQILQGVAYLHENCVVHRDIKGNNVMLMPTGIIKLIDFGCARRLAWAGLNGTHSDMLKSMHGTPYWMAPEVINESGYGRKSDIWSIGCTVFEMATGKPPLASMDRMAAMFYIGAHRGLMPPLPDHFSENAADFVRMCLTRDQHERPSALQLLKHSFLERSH
Chain of Mitogen-activated protein kinase 4 (Homo sapiens) (P31152 whole entry): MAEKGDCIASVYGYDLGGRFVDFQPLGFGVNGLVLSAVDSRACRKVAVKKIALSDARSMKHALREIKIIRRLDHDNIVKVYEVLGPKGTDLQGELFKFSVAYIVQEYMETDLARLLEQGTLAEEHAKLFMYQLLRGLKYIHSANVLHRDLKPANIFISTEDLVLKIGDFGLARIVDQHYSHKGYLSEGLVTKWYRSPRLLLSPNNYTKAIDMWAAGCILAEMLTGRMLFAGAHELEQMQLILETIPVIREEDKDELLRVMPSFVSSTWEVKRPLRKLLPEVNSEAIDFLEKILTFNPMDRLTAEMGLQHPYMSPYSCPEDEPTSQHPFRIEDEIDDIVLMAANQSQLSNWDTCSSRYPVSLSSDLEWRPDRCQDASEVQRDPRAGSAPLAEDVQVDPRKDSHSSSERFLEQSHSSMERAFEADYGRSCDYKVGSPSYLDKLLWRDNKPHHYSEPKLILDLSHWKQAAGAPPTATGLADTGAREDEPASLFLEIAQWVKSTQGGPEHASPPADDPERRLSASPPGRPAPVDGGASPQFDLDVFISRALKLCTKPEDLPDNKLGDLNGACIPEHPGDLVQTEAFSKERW
Chain of SRSF protein kinase 1 (Homo sapiens) (Q96SB4 whole entry): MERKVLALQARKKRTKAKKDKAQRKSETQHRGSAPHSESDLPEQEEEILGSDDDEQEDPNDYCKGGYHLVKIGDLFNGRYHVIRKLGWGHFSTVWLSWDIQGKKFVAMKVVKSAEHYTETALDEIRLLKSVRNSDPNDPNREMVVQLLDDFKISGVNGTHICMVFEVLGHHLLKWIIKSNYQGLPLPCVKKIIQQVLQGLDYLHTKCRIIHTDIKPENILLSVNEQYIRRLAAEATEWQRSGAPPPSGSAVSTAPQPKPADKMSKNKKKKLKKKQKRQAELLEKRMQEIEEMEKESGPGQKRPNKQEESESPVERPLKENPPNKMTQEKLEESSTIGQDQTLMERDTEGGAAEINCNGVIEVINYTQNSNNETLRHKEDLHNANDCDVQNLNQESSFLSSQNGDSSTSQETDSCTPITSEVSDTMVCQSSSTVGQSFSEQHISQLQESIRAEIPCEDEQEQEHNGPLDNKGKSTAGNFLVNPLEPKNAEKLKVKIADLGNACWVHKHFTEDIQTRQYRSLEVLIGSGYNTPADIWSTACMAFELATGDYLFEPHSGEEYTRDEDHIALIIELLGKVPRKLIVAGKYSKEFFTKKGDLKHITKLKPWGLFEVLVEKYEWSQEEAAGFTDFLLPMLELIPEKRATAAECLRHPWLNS
Chain of Mitogen-activated protein kinase kinase kinase 15 (Homo sapiens) (Q6ZN16 whole entry): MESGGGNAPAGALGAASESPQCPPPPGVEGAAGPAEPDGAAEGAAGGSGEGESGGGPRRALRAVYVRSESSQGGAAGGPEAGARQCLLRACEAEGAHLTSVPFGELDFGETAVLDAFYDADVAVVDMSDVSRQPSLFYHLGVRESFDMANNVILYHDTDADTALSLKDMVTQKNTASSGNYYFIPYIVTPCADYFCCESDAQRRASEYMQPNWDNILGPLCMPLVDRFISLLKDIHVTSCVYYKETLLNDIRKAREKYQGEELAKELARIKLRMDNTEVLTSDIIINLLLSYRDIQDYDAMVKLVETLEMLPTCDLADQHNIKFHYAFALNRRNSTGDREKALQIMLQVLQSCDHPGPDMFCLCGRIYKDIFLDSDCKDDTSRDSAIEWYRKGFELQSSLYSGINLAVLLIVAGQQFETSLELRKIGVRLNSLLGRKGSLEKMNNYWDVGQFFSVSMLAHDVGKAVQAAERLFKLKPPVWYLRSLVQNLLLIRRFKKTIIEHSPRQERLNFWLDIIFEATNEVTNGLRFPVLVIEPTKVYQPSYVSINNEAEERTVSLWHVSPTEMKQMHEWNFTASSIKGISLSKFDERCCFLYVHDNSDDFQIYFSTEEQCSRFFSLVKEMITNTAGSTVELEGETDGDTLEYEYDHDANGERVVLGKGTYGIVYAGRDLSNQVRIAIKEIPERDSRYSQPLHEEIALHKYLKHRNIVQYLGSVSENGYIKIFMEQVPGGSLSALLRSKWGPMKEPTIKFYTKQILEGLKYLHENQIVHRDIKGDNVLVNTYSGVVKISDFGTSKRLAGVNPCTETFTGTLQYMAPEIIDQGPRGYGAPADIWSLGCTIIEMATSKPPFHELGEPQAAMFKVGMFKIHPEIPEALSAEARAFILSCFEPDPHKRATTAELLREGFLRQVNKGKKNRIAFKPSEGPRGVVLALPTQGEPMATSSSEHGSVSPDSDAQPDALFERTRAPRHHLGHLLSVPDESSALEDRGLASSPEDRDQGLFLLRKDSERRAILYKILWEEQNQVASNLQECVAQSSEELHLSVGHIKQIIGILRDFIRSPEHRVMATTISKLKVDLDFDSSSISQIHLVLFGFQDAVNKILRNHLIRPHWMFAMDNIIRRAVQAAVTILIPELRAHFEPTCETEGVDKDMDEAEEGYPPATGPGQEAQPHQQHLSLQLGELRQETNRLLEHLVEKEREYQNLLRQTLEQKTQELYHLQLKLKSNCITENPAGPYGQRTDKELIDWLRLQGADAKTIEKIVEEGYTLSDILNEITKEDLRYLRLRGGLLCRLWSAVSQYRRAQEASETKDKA
Chain of Phosphatidylinositol 4,5-bisphosphate 3-kinase catalytic subunit alpha isoform (Homo sapiens), P42336 [M1043I] (P42336 whole entry M1043I, canonical isoform): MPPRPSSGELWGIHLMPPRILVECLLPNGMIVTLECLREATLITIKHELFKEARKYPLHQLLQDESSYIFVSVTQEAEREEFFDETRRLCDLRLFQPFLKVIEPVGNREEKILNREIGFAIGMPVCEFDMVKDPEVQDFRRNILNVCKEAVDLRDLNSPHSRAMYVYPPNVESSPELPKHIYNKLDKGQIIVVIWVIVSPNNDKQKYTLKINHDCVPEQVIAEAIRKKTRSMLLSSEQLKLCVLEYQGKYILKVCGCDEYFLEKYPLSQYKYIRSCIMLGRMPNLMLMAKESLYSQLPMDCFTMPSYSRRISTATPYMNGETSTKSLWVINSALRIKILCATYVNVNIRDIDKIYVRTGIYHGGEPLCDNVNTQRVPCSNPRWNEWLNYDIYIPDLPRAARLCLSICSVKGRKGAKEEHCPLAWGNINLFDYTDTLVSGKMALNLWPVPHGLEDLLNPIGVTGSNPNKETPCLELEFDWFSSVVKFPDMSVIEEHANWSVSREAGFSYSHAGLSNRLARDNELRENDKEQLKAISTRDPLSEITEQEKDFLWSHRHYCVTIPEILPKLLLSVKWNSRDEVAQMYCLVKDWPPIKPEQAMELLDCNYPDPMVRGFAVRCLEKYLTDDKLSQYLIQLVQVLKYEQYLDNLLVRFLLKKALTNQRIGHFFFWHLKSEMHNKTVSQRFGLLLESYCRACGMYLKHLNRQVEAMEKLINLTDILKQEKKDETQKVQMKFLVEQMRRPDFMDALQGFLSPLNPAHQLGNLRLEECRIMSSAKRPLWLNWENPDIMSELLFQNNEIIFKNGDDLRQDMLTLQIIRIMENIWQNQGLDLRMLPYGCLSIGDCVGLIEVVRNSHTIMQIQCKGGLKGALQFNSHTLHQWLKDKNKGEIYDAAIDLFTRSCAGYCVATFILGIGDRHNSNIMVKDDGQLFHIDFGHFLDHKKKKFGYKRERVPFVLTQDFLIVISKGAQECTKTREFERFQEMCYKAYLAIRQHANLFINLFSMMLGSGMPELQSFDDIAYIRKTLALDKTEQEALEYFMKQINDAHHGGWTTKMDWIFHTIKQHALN

Cc1nc(C2CCN(C(=O)c3ccc(OC(F)(F)F)cc3N)CC2)c2ncc(N3CCN(C)CC3)cc2n1 [BAY-693]
inactive: [1] 99% | [2] 91% | [3] 92% | [4] 100% | [5] 85% | [6] 79% | [7] 96% | [8] 79% | [9] 79%

CN1CCN(c2cnc3c(C4CCN(C(=O)c5ccc(OC(F)(F)F)cc5N)CC4)ncnc3c2)CC1 [BAY-885]
inactive: [1] 86% | [2] 100% | [3] 95% | [4] 100% | [5] 84% | [6] 82% | [7] 100% | [8] 88% | [9] 83%
